Experiment [1] relates to CapF. The experiment can be described thus: NADPH consumption assay (absorbance at 340 nm). The format is biochemical, Staphylococcus aureus. Conditions: 0.02 μM CapF, 1.0 μM CapE, 125 μM UDP-D-GlcNAc, 250 μM NADPH, 37 °C. Here is the method: A second assay monitoring the consumption of NADPH corroborates the inhibitory effect of 3-isopropenyl-tropolone (Fig. 2c). This assay is sensitive to the NADPH consumed by the SDR domain during the second reaction catalyzed by CapF (reduction step). […] Nevertheless, additional experiments were required to corroborate that idea (see below).
The enzymatic performance of CapF was evaluated by examining the consumption of NADPH spectrophotometrically, or by monitoring the disappearance of substrate and the formation of product by HPLC[9][12]. First, the time-dependent consumption of NADPH (monitored from a decrease of adsorption at 340 nm) was carried out in 384-well plates at a final volume of 50 μL. The solution contained 1.0 μM CapE, 0.02 μM CapF, 125 μM UDP-D-GlcNAc (substrate), 250 μM NADPH and fragment compounds at various concentrations in HBS supplemented with 0.005% (v/v) Tween-20 and 5% (v/v) DMSO. Each reaction mixture was incubated at 37 °C and the absorption at 340 nm was measured with a plate reader (PHERAstar, BMG Labtech, Durham, NC).
Figure S7. (a) Structure of compounds employed. (b-d) Time course of NADPH consumption by CapF in the presence of (b) tropolone, (c) 4-isopropyl-tropolone, and (d) 2-Cl-tropone. Increasing the concentration of compounds decreases the rate of consumption of NADPH. (e-g) Inhibition after two hours for (e) tropolone, (f) 4-isopropyl-tropolone, and (g) 2-Cl-tropone. Concentration of CapE and CapF was 1.0 µM and 0.02 µM, respectively. Concentration of NADPH and UDP-D-GlcNAc was 250 µM and 125 µM, respectively. The change of absorbance was calculated with respect to a control assay in the absence of CapF.
(1 picture or pasted object on this page, not shown here)

Experiment [2] addresses holo-CapF (reconstituted with Zn^2+) (Staphylococcus aureus, UniProt A0A0H3JP37). The experiment can be described thus: ITC binding to CapF reconstituted with Zn2+ (holo-CapF). From the text:
Because tropolone and its analogs have been described as metal chelators in proteins, we anticipated that binding of the inhibitor to CapF is governed by the Zn^2+ ion present in the cupin domain[12]. To confirm this hypothesis, we performed two different types of experiments. First, we determined the binding properties of 3-isopropenyl-tropolone to apo-CapF (i.e. Zn^2+-depleted CapF) and to holo-CapF (reconstituted with Zn^2+) by isothermal titration calorimetry (ITC). The stoichiometry is consistent with a 1:1 binding model.
Figure 3 Binding of 3-isopropenyl-tropolone to CapF requires Zn^2+. CapF (150 μM) reconstituted with Zn^2+ was titrated with 1.65 mM inhibitor in the absence (a) or the presence (b) of 1 mM EDTA. The upper panels correspond to the titration data, and the lower panels to the integrated binding isotherms. (c) Binding competition assay. CapF (1.0 μM) reconstituted with Zn^2+ in the presence of the Zn^2+-sensitive dye FluoZin-3 (1.0 μM) was titrated with 3-isopropenyl-tropolone (λEX = 490 nm; λEM = 520 nm).
Binding constants and thermodynamic parameters of the interaction between CapF and fragment compounds were determined with an iTC200 instrument (GE Healthcare) at 25 °C. Samples were equilibrated in a buffer composed of 10 mM HEPES (pH 7.4) and 150 mM NaCl supplemented with 5% (v/v) DMSO. CapF at 150–270 μM was titrated with compounds at 0.5–1.65 mM. Analysis of the data was performed with ORIGIN7 using a one-site binding model.
Figure S8. Binding isotherms of compounds with CapF as determined by ITC. (a) tropone, (b) 2-Cl-tropone, (c) tropolone, (d) 4-isopropyl-tropolone. Concentration of CapF in the cell was 150 µM, except in panel (a) where it was 270 µM. Concentration of compounds was 1.65 mM, except in panel (a) where it was 0.5 mM. Titrations were performed in an iTC200 instrument at 25 °C.
Data analysis was carried out with ORIGIN.

Experiment [3] has as its target CapF. Conditions: cited from earlier work.

Read-outs that look alike come from different tables or passages of the source.

Consider five compounds from publication PMC5393024, “Discovery and characterization of natural tropolones as inhibitors of the antibacterial target CapF from Staphylococcus aureus” (Scientific Reports, 2015).

holo-CapF (reconstituted with Zn^2+), sequence (A0A0H3JP37 entry or part of it): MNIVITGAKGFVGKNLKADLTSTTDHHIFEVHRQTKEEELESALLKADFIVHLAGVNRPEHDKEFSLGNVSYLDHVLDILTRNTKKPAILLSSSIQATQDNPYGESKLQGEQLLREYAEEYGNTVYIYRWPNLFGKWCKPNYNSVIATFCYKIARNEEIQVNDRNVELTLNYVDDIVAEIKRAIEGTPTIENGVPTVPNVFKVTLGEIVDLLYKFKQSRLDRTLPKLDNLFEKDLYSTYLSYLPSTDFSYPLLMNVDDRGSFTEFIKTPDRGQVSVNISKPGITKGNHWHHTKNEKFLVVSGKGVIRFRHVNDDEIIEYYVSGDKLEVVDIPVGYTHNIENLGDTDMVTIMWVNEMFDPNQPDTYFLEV

Take `O=c1cccccc1Cl` [2-Cl-tropone]: in experiment [1], the “inhibition of NADPH consumption” value is given as “did not significantly inhibit”. In addition, the “binding to CapF by ITC” value in experiment [2] (ITC, 25 °C) is “not detected”.
On to `CC(C)c1cccc(=O)c(O)c1` [4-isopropyl-tropolone], for which the “inhibition of NADPH consumption” value in experiment [1] is reported as “inhibited the consumption of NADPH in a concentration-dependent basis”. Further, the dissociation constant (Kd) in experiment [2] (ITC, 25 °C, 10 mM HEPES pH 7.4, 150 mM NaCl, 5% DMSO, one-site model, read-out: KD) stood at 1800 µM; in experiment [2] (ITC, 25 °C, read-out: KD) it was 1800 µM. In addition, in experiment [2] (ITC, stoichiometry was fixed to n = 1 in the fit), the “n (binding stoichiometry)” value was found to be 1.0.
Turning to `O=c1cccccc1O` [tropolone], the “inhibition of NADPH consumption” value in experiment [1] was “inhibited the consumption of NADPH in a concentration-dependent basis”. The Kd in experiment [2] worked out at 38 ± 7 µM. For the same compound, in experiment [2] (ITC, 25 °C), the “n (binding stoichiometry)” value is given as 1.1 ± 0.2, the “ΔH°” value was -2.9 ± 0.8 kcal/mol and the “−TΔS°” value is -3.2 ± 1.0 kcal/mol. Also, the “ligand efficiency (LE = −ΔG/HAC)” value in experiment [2] (from ITC binding free energy) worked out at 0.67 kcal/mol.
On to `O=c1cccccc1` [tropone], for which the “inhibition of NADPH consumption” value in experiment [1] is on record as “did not significantly inhibit”. Moreover, in experiment [2] (ITC, 25 °C), the “binding to CapF by ITC” value is given as “not detected”.
NADPH: the Kd in experiment [3] was 1.6 µM.
